28 compounds from patent US10508120B2, “TYK2 inhibitors and uses thereof” (Nimbus Lakshmi, Inc., priority 2017, dated 2019) can be followed below.

The IC50 is the concentration that gives 50% inhibition. The term Kd denotes the concentration at which binding is half-saturated. As a reminder, the inhibition is the percentage by which the read-out fell short of the control.

Test [1] addresses JAK2/JAK2 homdimeric complex (Homo sapiens (Human), UniProt O60674). As to the kind of experiment: GM-CSF Induced pSTAT5 in Human PBMC. The format is cell-based. The note with it: GM-CSF 5 ng/mL for 20 minutes, pSTAT5 by MSD, read-out: PBMC_GMCSF_pSTAT5 IC50.
Test [2] deals with human TYK2 (JH2domain-pseudokinase) (Homo sapiens (Human), UniProt P29597). As to the kind of experiment: TYK2 JH2 Domain Binding Assay (KINOMEscan). Summed up:
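Competition binding of an NFkB-DBD fusion of human TYK2 JH2 (G556–D888), expressed in HEK293 and used as crude extract at <0.1 nM, against immobilized ligand beads; 1 h at room temperature in PBS/Tween/DTT/BSA buffer, 0.9% DMSO.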

Test [3] has as its target Tyk2 kinase domain (DH1) (Homo sapiens (Human), UniProt P29597). As to the kind of experiment: Tyk2 Radioactive Kinase Assay. The format is biochemical. As to conditions: 10 μM compound, 10 μM ATP; for inhibition at 10 µM: read-out: Tyk2 JH1% Inhibition @ 10 μM. Put shortly: (§1)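 Read-out is percent inhibition from a radioactive kinase reaction, measured with compound at 10 μM.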

The target of test [4] is JAK2 kinase domain (JH1) (Homo sapiens (Human), UniProt O60674). As to the kind of experiment: JAK2 Radioactive Kinase Assay. The format is biochemical. The note with it: 10 μM compound, 10 μM ATP; for inhibition at 10 µM: read-out: JAK2 JH1% Inhibition @ 10 μM. Put shortly: as §1
Chain of JAK2 kinase domain (JH1) (O60674 849-1124): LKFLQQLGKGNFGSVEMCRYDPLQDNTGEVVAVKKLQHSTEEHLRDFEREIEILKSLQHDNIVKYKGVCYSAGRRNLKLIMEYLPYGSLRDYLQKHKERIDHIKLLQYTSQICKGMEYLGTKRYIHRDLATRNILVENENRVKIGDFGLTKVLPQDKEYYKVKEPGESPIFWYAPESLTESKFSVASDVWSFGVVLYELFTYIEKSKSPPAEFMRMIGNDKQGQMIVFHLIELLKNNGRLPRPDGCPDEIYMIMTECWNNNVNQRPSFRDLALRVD

Chain of human TYK2 (JH2domain-pseudokinase) (P29597 556-888): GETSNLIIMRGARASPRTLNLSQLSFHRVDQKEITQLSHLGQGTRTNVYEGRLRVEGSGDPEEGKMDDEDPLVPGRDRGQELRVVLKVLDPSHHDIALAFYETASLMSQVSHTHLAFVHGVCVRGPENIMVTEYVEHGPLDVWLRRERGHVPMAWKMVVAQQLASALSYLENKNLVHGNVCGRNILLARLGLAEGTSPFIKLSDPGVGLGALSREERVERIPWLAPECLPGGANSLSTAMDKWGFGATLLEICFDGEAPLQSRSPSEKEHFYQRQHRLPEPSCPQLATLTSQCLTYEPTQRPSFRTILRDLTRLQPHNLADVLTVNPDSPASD
Chain of Tyk2 kinase domain (DH1) (P29597 897-1176): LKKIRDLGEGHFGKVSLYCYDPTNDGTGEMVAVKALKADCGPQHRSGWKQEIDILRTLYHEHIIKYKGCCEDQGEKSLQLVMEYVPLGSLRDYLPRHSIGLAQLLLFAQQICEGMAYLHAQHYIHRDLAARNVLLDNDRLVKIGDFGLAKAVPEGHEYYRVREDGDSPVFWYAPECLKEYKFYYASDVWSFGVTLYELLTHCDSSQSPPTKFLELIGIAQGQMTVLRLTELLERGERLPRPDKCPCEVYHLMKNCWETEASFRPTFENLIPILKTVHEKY
Chain of JAK2/JAK2 homdimeric complex (O60674 whole entry, the tested form may be a part): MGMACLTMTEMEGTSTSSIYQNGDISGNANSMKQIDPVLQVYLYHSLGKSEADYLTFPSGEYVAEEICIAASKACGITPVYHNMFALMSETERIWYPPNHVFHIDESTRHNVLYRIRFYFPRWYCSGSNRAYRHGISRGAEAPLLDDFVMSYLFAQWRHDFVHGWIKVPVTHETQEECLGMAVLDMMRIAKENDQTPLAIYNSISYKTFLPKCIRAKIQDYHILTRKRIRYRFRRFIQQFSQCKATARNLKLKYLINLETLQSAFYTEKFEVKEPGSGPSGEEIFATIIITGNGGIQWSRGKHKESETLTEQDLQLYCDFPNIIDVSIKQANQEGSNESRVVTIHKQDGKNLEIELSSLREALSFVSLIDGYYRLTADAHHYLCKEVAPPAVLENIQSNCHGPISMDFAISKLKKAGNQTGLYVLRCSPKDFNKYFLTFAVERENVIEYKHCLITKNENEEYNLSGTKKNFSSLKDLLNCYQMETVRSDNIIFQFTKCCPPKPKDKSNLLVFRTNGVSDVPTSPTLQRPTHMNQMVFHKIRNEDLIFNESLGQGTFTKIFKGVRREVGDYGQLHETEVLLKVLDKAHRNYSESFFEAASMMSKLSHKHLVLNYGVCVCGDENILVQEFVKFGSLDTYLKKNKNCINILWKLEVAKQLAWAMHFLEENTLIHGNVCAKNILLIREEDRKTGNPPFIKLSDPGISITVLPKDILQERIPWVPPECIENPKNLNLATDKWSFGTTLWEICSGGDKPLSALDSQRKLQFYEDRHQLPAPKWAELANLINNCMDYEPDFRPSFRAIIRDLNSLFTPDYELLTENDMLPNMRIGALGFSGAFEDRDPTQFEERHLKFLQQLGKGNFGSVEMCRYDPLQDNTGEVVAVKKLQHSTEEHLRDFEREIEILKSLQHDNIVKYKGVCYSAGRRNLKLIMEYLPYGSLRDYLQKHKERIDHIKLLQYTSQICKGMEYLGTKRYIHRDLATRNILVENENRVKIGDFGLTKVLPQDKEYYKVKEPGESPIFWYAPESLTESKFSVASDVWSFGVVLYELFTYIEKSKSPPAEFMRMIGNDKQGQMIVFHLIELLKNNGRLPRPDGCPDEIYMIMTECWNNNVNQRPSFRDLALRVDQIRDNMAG
Chain of JAK2/JAK2 homdimeric complex (P32927 17-897 partner): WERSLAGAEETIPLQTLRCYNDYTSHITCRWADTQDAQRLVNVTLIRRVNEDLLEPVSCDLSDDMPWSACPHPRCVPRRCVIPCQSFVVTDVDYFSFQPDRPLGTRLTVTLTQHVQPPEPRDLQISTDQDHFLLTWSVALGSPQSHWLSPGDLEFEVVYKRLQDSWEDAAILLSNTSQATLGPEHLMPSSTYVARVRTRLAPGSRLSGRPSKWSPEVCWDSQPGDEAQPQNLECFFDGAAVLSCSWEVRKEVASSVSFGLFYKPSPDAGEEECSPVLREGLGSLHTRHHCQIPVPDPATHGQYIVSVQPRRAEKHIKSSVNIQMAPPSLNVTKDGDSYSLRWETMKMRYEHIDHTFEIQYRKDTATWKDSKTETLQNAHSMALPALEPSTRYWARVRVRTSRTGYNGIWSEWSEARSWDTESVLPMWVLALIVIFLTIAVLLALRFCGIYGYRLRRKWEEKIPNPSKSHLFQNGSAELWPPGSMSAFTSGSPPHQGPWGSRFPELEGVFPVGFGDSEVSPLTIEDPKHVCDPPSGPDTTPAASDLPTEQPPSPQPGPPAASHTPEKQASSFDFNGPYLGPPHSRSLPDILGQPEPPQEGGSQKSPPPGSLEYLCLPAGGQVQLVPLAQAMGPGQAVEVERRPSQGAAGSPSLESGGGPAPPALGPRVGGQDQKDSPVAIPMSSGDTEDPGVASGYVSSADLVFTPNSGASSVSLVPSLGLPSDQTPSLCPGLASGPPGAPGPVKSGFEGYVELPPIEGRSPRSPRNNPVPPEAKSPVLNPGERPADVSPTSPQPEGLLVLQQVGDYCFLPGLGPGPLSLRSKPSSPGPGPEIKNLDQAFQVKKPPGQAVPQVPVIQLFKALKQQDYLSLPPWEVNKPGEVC

Consider `CNc1cc(Nc2cccn([C@H]3CCC[C@H](OC)C3)c2=O)nc2c(C(=O)N[C@H]3CC[C@@H]3OC)cnn12` [I-1098], for which the half-inhibitory concentration (IC50) in test [1] was greater than 50000 nM. In test [2], this compound had a Kd of less than 0.2 nM. Also, the inhibition at 10 µM in test [3] and in test [4] was less than 50% throughout.
`CNc1cc(Nc2cccn(C3CCC[C@H](OC)C3)c2=O)nc2c(C(=O)NCC(C)(C)CO)cnn12` (stereo partly shown) [I-958]: in test [1], the IC50 is greater than 50000 nM. This compound yielded a Kd in test [2] of less than 0.2 nM. Moreover, the inhibition at 10 µM in test [3] and in test [4] was less than 50% throughout.
In the case of `CNc1cc(Nc2cccn([C@H]3CCC[C@H]3O)c2=O)nc2c(C(=O)N[C@@H]3C[C@@H]3F)cnn12` [I-965], the IC50 in test [1] is greater than 50000 nM. In test [2], this compound displayed a Kd of less than 0.2 nM. The inhibition at 10 µM in test [3] and in test [4] was less than 50% throughout.
For the compound `CNc1cc(Nc2cccn(-c3cccc(F)c3)c2=O)nc2c(C(=O)N[C@H]3CC[C@H]3O)cnn12` [I-1004], the IC50 in test [1] is greater than 12500 nM. For the same compound, in test [2], the Kd was less than 0.2 nM. Moreover, the “Tyk2 JH1% Inhibition @ 10 μM” value in test [3] is listed as “A (percent inhibition at 10 μM lower than 50)”. Also, in test [4], the “JAK2 JH1% Inhibition @ 10 μM” value is given as “A (percent inhibition at 10 μM lower than 50)”.
Turning to `CNc1cc(-c2cn(C(C)C)c3ncc(F)cc23)nc2c(C(=O)N[C@H]3CC[C@H]3O)cnn12` [I-1013, 5-(5-fluoro-1-isopropyl-1-pyrrolo[2,3-b]pyridin-3-yl)-N-(2-hydroxycyclobutyl)-7-(methylamino)pyrazolo[1,5-a]pyrimidine-3-carboxamide], the IC50 in test [1] is greater than 12500 nM. The same compound displayed a Kd in test [2] of less than 0.2 nM. Moreover, the inhibition at 10 µM in test [3] and in test [4] was less than 50% each time.
As to `CNc1cc(Nc2cccn([C@H]3CCCC[C@H]3O)c2=O)nc2c(C(=O)NC3CC3)cnn12` [I-878], the IC50 in test [1] is greater than 50000 nM. The compound also came in with a Kd in test [2] of less than 0.2 nM. The inhibition at 10 µM in test [3] and in test [4] was less than 50% each time.
For the compound `CNc1cc(Nc2cccn(-c3ncc(C)s3)c2=O)nc2c(C(=O)N[C@@H]3CC[C@H]3O)cnn12` [I-1070], in test [1], the IC50 was greater than 12500 nM. Besides, the Kd in test [2] was less than 0.2 nM. For the same compound, the inhibition at 10 µM in test [3] and in test [4] was less than 50% each time.
As to `CNc1cc(Nc2cccc3ocnc23)nc2c(C(=O)NC3CC[C@@H]3OC)cnn12` (stereo partly shown) [I-1051, 5-(benzo[d]oxazol-4-ylamino)-N-(2-methoxycyclobutyl)-7-(methylamino) pyrazolo[1,5-a]pyrimidine-3-carboxamide], the IC50 in test [1] is greater than 50000 nM. The compound further returned a Kd in test [2] of less than 0.2 nM. Moreover, the inhibition at 10 µM in test [3] and in test [4] was less than 50% each time.
As to `CNc1cc(Nc2cccn([C@@H]3CCC[C@@H](O)C3)c2=O)nc2c(C(=O)N[C@@H]3C[C@@H]3F)cnn12` [I-1029], the IC50 in test [1] was greater than 2500 nM. The Kd in test [2] was less than 0.2 nM. Besides, the inhibition at 10 µM in test [3] and in test [4] was less than 50% each time.
`CNc1cc(Nc2cccn([C@H]3CCC[C@H](OC)C3)c2=O)nc2c(C(=O)N[C@@H]3CC3F)cnn12` (stereo partly shown) [I-1042]: the IC50 in test [1] is greater than 2500 nM. The compound also showed a Kd in test [2] of less than 0.2 nM. The inhibition at 10 µM in test [3] and in test [4] was less than 50% each time.
As to `CNc1cc(Nc2cccn([C@H]3CCC[C@H](OC)C3)c2=O)nc2c(C(=O)NCC(C)(C)CO)cnn12` [I-1027], the IC50 in test [1] was greater than 50000 nM. Also, in test [2], the Kd is less than 0.2 nM. The inhibition at 10 µM in test [3] and in test [4] was less than 50% throughout.
Consider `CNc1cc(Nc2cccn([C@H]3CCCC[C@H]3O)c2=O)nc2c(C(=O)N[C@@H]3CC[C@H]3OC)cnn12` [I-1057], for which the IC50 in test [1] was greater than 50000 nM. The compound also displayed a Kd in test [2] of less than 0.2 nM. The inhibition at 10 µM in test [3] and in test [4] was less than 50% throughout.
Take `CNc1cc(-c2cn(C(C)C)c3ncc(F)cc23)nc2c(C(=O)N[C@H]3CC[C@@H]3OC)cnn12` [I-1053, 5-(5-fluoro-1-isopropyl-1H-pyrrolo[2,3-b]pyridin-3-yl)-N-((1S,2S)-2-methoycyclobutyl)-7-(methylamino)pyrazolo[1,5-a]pyrimidine-3-carboxamide]: in test [1], the IC50 is greater than 12500 nM. This compound also yielded a Kd in test [2] of less than 0.2 nM. Besides, the inhibition at 10 µM in test [3] and in test [4] was less than 50% throughout.
Turning to `CNc1cc(Nc2cccn([C@H]3CC[C@@H]3O)c2=O)nc2c(C(=O)N[C@H]3CC[C@@H]3OC)cnn12` [I-1094], the IC50 in test [1] is greater than 50000 nM. The Kd in test [2] is less than 0.2 nM. The inhibition at 10 µM in test [3] and in test [4] was less than 50% each time.
Consider `CNc1cc(Nc2cccn3cnnc23)nc2c(C(=O)N[C@H]3CC[C@@H]3OC)cnn12` [I-1102], for which the 50% inhibitory concentration (IC50) in test [1] was greater than 2500 nM. The Kd in test [2] is less than 0.2 nM. Besides, the inhibition at 10 µM in test [3] and in test [4] was less than 50% throughout.
For `CNc1cc(Nc2cccn3ccnc23)nc2c(C(=O)N[C@H]3CC[C@@H]3OC)cnn12` [I-1052], the IC50 in test [1] is greater than 50000 nM. The compound further showed a Kd in test [2] of less than 0.2 nM. Also, the inhibition at 10 µM in test [3] and in test [4] was less than 50% throughout.
In the case of `CNc1cc(Nc2cccn(-c3ccccc3F)c2=O)nc2c(C(=O)N[C@H]3CC[C@H]3O)cnn12` [I-1035], the half-inhibitory concentration (IC50) in test [1] was greater than 2500 nM. In test [2], this compound returned a Kd of less than 0.2 nM. Besides, the inhibition at 10 µM in test [3] and in test [4] was less than 50% each time.
Regarding `CNc1cc(Nc2cccn([C@H]3CCC[C@@H](OC)C3)c2=O)nc2c(C(=O)N[C@H]3CC[C@@H]3OC)cnn12` [I-996], in test [1], the IC50 is greater than 50000 nM. In test [2], the Kd was less than 0.2 nM. In addition, the “Tyk2 JH1% Inhibition @ 10 μM” value in test [3] is “A (percent inhibition at 10 μM lower than 50)”. Moreover, the “JAK2 JH1% Inhibition @ 10 μM” value in test [4] is “A (percent inhibition at 10 μM lower than 50)”.
For `CNc1cc(-c2cn(C3CCOCC3)c3ncccc23)nc2c(C(=O)NC3CCC3O)cnn12` (stereo not shown) [I-1048, N-(2-hydroxycyclobutyl)-7-(methylamino)-5-(1-(tetrahydro-2H-pyran-4-yl)-1H-pyrrolo[2,3-b]pyridin-3-yl)pyrazolo[1,5-a]pyrimidine-3-carboxamide], the IC50 in test [1] is greater than 2500 nM. The Kd in test [2] was less than 0.2 nM. The inhibition at 10 µM in test [3] and in test [4] was less than 50% each time.
Regarding `CNc1cc(Nc2cccn([C@H]3CC[C@](C)(OC)CC3)c2=O)nc2c(C(=O)N[C@@H]3CC[C@H]3O)cnn12` [I-1107], the IC50 in test [1] is greater than 2500 nM. The compound further yielded a Kd in test [2] of less than 0.2 nM. For the same compound, the inhibition at 10 µM in test [3] and in test [4] was less than 50% throughout.
On to `CNc1cc(Nc2cccn([C@H]3CCC[C@H](O)C3)c2=O)nc2c(C(=O)N[C@H]3CC[C@@H]3OC)cnn12` [I-1063], for which the 50% inhibitory concentration (IC50) in test [1] was greater than 50000 nM. Further, the Kd in test [2] was less than 0.2 nM. For the same compound, the inhibition at 10 µM in test [3] and in test [4] was less than 50% each time.
On to `CNc1cc(Nc2cccn([C@H]3CCCN(CCF)C3)c2=O)nc2c(C(=O)N[C@@H]3CC[C@H]3OC)cnn12` [I-1059], for which the IC50 in test [1] was greater than 50000 nM. In test [2], this compound displayed a Kd of less than 0.2 nM. Besides, the inhibition at 10 µM in test [3] and in test [4] was less than 50% each time.
`CNc1cc(Nc2cccn([C@@H]3CCC[C@@H](OC)C3)c2=O)nc2c(C(=O)N[C@H]3CC[C@@H]3OC)cnn12` [I-1099]: in test [1], the IC50 is greater than 50000 nM. Besides, the Kd in test [2] is less than 0.2 nM. Further, the inhibition at 10 µM in test [3] and in test [4] was less than 50% each time.
Regarding `CNc1cc(Nc2cccn([C@H]3CC[C@](C)(OC)CC3)c2=O)nc2c(C(=O)N[C@@H]3CC[C@H]3O)cnn12` [I-962], the IC50 in test [1] was greater than 50000 nM. Also, the Kd in test [2] was less than 0.2 nM. In addition, the “Tyk2 JH1% Inhibition @ 10 μM” value in test [3] is on record as “A (percent inhibition at 10 μM lower than 50)”. Besides, in test [4], the “JAK2 JH1% Inhibition @ 10 μM” value was “A (percent inhibition at 10 μM lower than 50)”.
Take `CNc1cc(Nc2cccn([C@H]3CCCC[C@H]3OC)c2=O)nc2c(C(=O)N[C@H]3CC[C@@H]3OC)cnn12` [I-1097]: the IC50 in test [1] is greater than 50000 nM. Further, in test [2], the Kd was less than 0.2 nM. The inhibition at 10 µM in test [3] and in test [4] was less than 50% each time.
As to `CNc1cc(Nc2cccn([C@H]3CCC[C@H]3O)c2=O)nc2c(C(=O)NC3CC3)cnn12` [I-963], the IC50 in test [1] is greater than 50000 nM. This compound also displayed an equilibrium dissociation constant (Kd) in test [2] of less than 0.2 nM. For the same compound, the inhibition at 10 µM in test [3] and in test [4] was less than 50% each time.
On to `CNc1cc(Nc2cccn([C@@H]3CC[C@H]3O)c2=O)nc2c(C(=O)N[C@H]3CC[C@@H]3OC)cnn12` [I-1093], for which, in test [1], the 50% inhibitory concentration (IC50) is greater than 50000 nM. The compound also came in with a Kd in test [2] of less than 0.2 nM. The inhibition at 10 µM in test [3] and in test [4] was less than 50% throughout.
Take `CNc1cc(Nc2cccn([C@H]3CCN(CCF)C3)c2=O)nc2c(C(=O)N[C@H]3CC[C@@H]3OC)cnn12` [I-1050, 5-((1-((S)-1-(2-fluoroethyl)pyrrolidin-3-yl)-2-oxo-1,2-dihydropyridin-3-yl)amino)-N-((1 S,2S)-2-methoxycyclobutyl)-7-(methylamino)pyrazolo[1,5-a]pyrimidine-3-carboxamide]: the IC50 in test [1] was greater than 50000 nM. The same compound displayed an equilibrium dissociation constant (Kd) in test [2] of less than 0.2 nM. For the same compound, the inhibition at 10 µM in test [3] and in test [4] was less than 50% in each case.
